The results in this text go back to patent publication US6515197B1, “Transgenic mouse expressing a polynucleotide encoding a human ataxin-2 polypeptide” (Cedars-Sinai Medical Center, priority 2000, dated 2003).

The test deals with proteasomal pathway. Nature of the test: lactacystin treatment of 293T cells transfected with SCA2 constructs, western blot. The format is cell-based. The procedure:
To further confirm that the 42 kD fragment was generated preferably by ataxin-2 with an expanded polyQ tract, and to investigate whether mutant ataxin-2 was ubiquitinated, 293T cells were transfected with pEGFP-SCA2(Q22) or pEGFP-SCA2(Q58), followed by treatment with lactacystin for 24 hours to inhibit the proteasomal pathway. Briefly, to generate GFP fusion with SCA2, a full-length SCA2 cDNA including nucleotides 145 to 4,481 (Pulst et al., Nature Genet., 14:269-276 (1996)) was assembled in the pBluescript vector with 22 or 58 CAG repeats. To generate ataxin-2 expression plasmids, the full-length SCA2 cDNA containing either the 22 or 58 CAG repeat was shuttled into the pEGFPC2 (Clontech; Palo Alto Calif.) or pcDNA vectors (Invitrogen; Carlsbad Calif.). These constructs were named pEGFP-SCA22, pEGFP-SCA58, pcDNA-SCA22 or pcDNA-SCA58.
Transient expression of pEGFP-SCA2 constructs was analyzed in 293T cells. To investigate ubiquitination of ataxin-2, 293T cells growing at 60% confluency in 100-mm Petri dishes were transfected with either pEGFP-SCA2 or pcDNA-SCA2 constructs (10 μg) containing either 22 or 58 CAG repeats. Transfected cells were grown overnight and then treated with culture medium with or without lactacystin (10 μM) for 24 h. Cells were incubated with triple detergent buffer (0.5% sodium dodecyl sulfate (SDS), 1% Triton-X 100, 0.5% deoxycholate, 100 mM Tris-HCl, pH 8.0, 150 mM NaCl, and Sigma mammalian protease inhibitors cocktail (Sigma; St. Louis Mo.)) for 1 h on ice with occasional vortexing. Protein extracts were centrifuged at maximum speed in an Eppendorf microfuge at 4° C. for 30 min, and pellets were resuspended in triple detergent buffer. Both protein extract and pellet suspension were stored at −70° C. For western-blot analysis, 100 μg total protein extract per lane was mixed with SDS-polyacrylamide gel electrophoresis (PAGE) sample buffer and incubated for 2 h at 37° C. before loading on to a 4-15% SDS-PAGE gradient gel. Western blots were detected with SCA2A, 1C2 and ubiquitin antibodies.
Western blots were performed on transfected 293 cell protein extracts and insoluble pellets using the GFP or ubiquitin antibody. Untreated cells served as controls. The GFP antibody detected the full-length GFP-ataxin-2 with Q22 and Q58 at 200 kD and an additional band at 70 kD in 293T cells transfected with pEGFP-SCA2(Q58). Neither the 70 kD nor the 200 kD proteins were detected in untransfected 293T protein extracts.
To investigate whether the GFP fusion caused any interference with ubiquitin conjugation, 293T cells were transfected with pcDNA-SCA2(Q22) or pcDNA-SCA2(58) and treated with lactacystin.

Take `CC(=O)N[C@@H](CSC(=O)[C@]1([C@@H](O)C(C)C)NC(=O)[C@H](C)[C@@H]1O)C(=O)O` [lactacystin]: the “levels of GFP-tagged ataxin-2” value (293T cells transfected with pEGFP-SCA2(Q22) or (Q58), lactacystin 10 μM for 24 h, versus untreated cells, GFP antibody) is reported as “increased levels”. The “levels of ubiquitin-conjugated protein complexes” value (293T cells transfected with pEGFP-SCA2(Q22) or (Q58), lactacystin 10 μM for 24 h, versus untreated cells, ubiquitin antibody) is on record as “increased levels”. Further, the “total amount of ataxin-2(Q58) (p180)” value (293T cells transfected with pcDNA-SCA2(58), lactacystin-treated, 1C2 or ubiquitin antibodies) is “increased”. Further, the “formation of large ataxin-2 aggregates” value (293T cells transfected with pcDNA-SCA2(Q22) or pcDNA-SCA2(58), lactacystin-treated, western blot) is “no large ataxin-2 aggregates were found”.
